Experimental data published in patent US11135186B2, “Regulators of the endoplasmic reticulum proteostasis network” (The Scripps Research Institute, priority 2015, dated 2021).
pEC50: −log10 of the molar value.

Tests used:
Format in all cases: cell-based, human
[1] = tested on: ALLC interaction with BiP and GRP94; test: In situ cross-linking and ALLC co-immunopurification in ALMC-2 cells; details: 10 μM, 16 h, cross-linking
Method: For immunoprecipitations, cells were washed with PBS then cross-linked with 0.5 mM Dithiobis(succinimidyl propionate) (DSP) for 30 min at room temperature. The reaction was quenched by addition of 100 mM Tris pH 7.5, then RIPA buffer was added to the cell pellets for lysis. Lysates were cleared by centrifugation at centrifuged at 10000×g for 15 min. Proteins were immunopurified using sheep polyclonal free λ LC antibody (Bethyl Laboratories A80-127A) that was covalently conjugated to CNBr-activated Sepharose 4B (GE Healthcare). After four washes in RIPA buffer, proteins were eluted by boiling in Laemmli buffer+100 mM DTT and samples were separated by SDS-PAGE and transferred to nitrocellulose membranes. Blots were probed with the following primary antibodies: monoclonal mouse M2 anti-FLAG (1:500, Sigma), polyclonal rabbit anti-TTR (1:1000, Dako), rabbit polyclonal anti-human lambda light chain (1:1000, Bethyl Laboratories A90-112A), mouse monoclonal anti-Grp78 (1:500, Santa Cruz Biotechnology sc-166490), rabbit polyclonal anti-Grp94 (1:1000, GeneTex GTX103203), rabbit polyclonal anti-PDIA4 (1:1000, Protein Tech Group 14712-1-AP), mouse monoclonal anti-ATF6a (1-7) (BioAcademia, 1:1000), rabbit anti-phospho eIF2α (CellSignaling #9721, 1:500), mouse anti-eIF2α (Abcam ab5369, 1:1000) and mouse monoclonal anti β-actin (1:10000, Sigma).

[2] = tested on: HEK293T-Rex cells; test: mRNA-Seq transcriptional profiling and geneset analysis in HEK293T-Rex cells; details: for activation of the ATF6 geneset relative to Tg: mRNA-seq geneset analysis; for BiP mRNA-Seq fold change (relative to Vh) / GRP94 mRNA-Seq fold change (relative to Vh) / SEL1L mRNA-Seq fold change (relative to Vh): ATF6-selective gene; for BiP mRNA-Seq fold change (relative to Vh) / GRP94 mRNA-Seq fold change (relative to Vh) / SEL1L mRNA-Seq fold change (relative to Vh) / DNAJB1 mRNA-Seq fold change (relative to Vh) / HSPA1A mRNA-Seq fold change (relative to Vh) / HSPA8 mRNA-Seq fold change (relative to Vh) / ASNS mRNA-Seq fold change (relative to Vh) / DDIT3 (CHOP) mRNA-Seq fold change (relative to Vh) / TrIB3 mRNA-Seq fold change (relative to Vh) / ERdj3 mRNA-Seq fold change (relative to Vh) / HYOU1 mRNA-Seq fold change (relative to Vh) / p58IPK mRNA-Seq fold change (relative to Vh) / DNAJC10 mRNA-Seq fold change (relative to Vh) / HSPA13 mRNA-Seq fold change (relative to Vh) / SEC24D mRNA-Seq fold change (relative to Vh): compounds 10 μM, Tg 1 μM; for DNAJB1 mRNA-Seq fold change (relative to Vh) / HSPA1A mRNA-Seq fold change (relative to Vh) / HSPA8 mRNA-Seq fold change (relative to Vh): HSF1 target gene; for ASNS mRNA-Seq fold change (relative to Vh) / DDIT3 (CHOP) mRNA-Seq fold change (relative to Vh) / TrIB3 mRNA-Seq fold change (relative to Vh): PERK target gene; for ERdj3 mRNA-Seq fold change (relative to Vh) / HYOU1 mRNA-Seq fold change (relative to Vh) / p58IPK mRNA-Seq fold change (relative to Vh): XBP1s- or ATF6-target gene; for DNAJC10 mRNA-Seq fold change (relative to Vh) / HSPA13 mRNA-Seq fold change (relative to Vh) / SEC24D mRNA-Seq fold change (relative to Vh): XBP1s-selective gene
Method: HEK293T-Rex and HEK293^DAX cells in 12-well plates were treated for 6 h with vehicle, 1 μM Tg, 10 μM TMP (in HEK293^DAX), or 10 μM 132, 147 or 263 in biological triplicate at 37° C. Cells were harvested, and RNA was extracted using the RNeasy Mini Kit (Qiagen). Total RNA was quantified using NanoDrop (ND-1000). Samples were run on the Illuina HiSeq system.
Single end, 100 bp-long reads from RNA-Seq experiments were aligned to the GRCh37.p13 human genome reference assembly using SeqMan NGen 11.2.1 (DNAStar, Inc.). The assembly data were then imported into ArrayStar with QSeq (DNAStar, Inc.) to quantify the gene expression levels. The sequence counts were normalized to reads per kilobase per million (RPKM) after filtering out non-mRNA sequence features. The statistical significance of the difference between the expression levels of a gene under different conditions was assessed using a Student's t-test with the Benjamini-Hochberg multiple testing correction.
ATF6- and XBP1s-selective target genes were identified from transcriptional profiles of HEK293D^X cells following stress-independent activation of TMP-dependent DHFR-ATF6 and/or tetracycline inducible XBP1s, as previously described^4. PERK-selective target genes were identified from^8. Only ATF6-, XBP1s- or PERK-selective genes induced >1.5 fold in Tg-treated samples were used in this analysis. The log transformed fold-increase of these target genes in HEK293T-Rex cells treated with the respective ER proteostasis regulators were then normalized to the log transformed fold increase of these genes induced by Tg treatment. The plots shown in FIG. 5b-e were prepared as box and whisker plots using Kaleidograph. Differential activation of the ATF6, XBP1s, and PERK genesets was assessed by one-way ANOVA and significance of pairwise comparison confirmed by unpaired t-test. An analogous strategy was employed to prepare the heat map using transcriptional data from the MGE analysis.

[3] = tested on: ALLC (amyloidogenic light chain); test: Light chain ELISA, ALLC from ALMC-2 plasma cells; details: ALMC-2 cells; for pEC50: read-out: EC50 of dose dependent reduction in ALLC secretion
Method: ALMC-2 or KAS-6/1 plasma cells were plated 100,000 cells/well in 150 μL of media in 96-well MultiScreenHTS filtration plates (Millipore MSBVS1210). Triplicate wells were treated with DMSO or compounds at the indicated concentrations and incubated for 16 h. Media was removed by filtration using a QIAvac 96 vacuum manifold (Qiagen) and wells were washed two times with 150 μL media. Wells were then incubated with 150 μL of fresh media for 2 hr and the conditioned media was harvested into a 96-well plate using the vacuum manifold. Free λLC and IgG concentrations were determined by ELISA in 96-well plates (Immulon 4HBX, Thermo Scientific). Wells were coated overnight at 37° C. with rabbit anti-human A light chain polyclonal antibody (Bethyl Laboratories, A90-112A) at a 1:1000 dilution or human IgG-heavy and light chain antibody (Bethyl Laboratories, A80-118A) at a 1:2000 dilution in 50 mM sodium carbonate (pH 9.6). In between all incubation steps, the plates were rinsed extensively with Tris-buffered saline containing 0.05% Tween-20 (TBST). Plates were blocked with 5% non-fat dry milk in TBST for 1 h at 37° C. Media analytes were diluted between 5-200 fold in 5% non-fat dry milk in TBST and 100 μL of each sample was added to individual wells. Light chain or IgG standards ranging from 3-300 ng/mL were prepared from purified human Bence Jones A light chain or human reference serum (Bethyl Laboratories, P80-127 and RS10-110). Plates were incubated at 37° C. for 1.5 h while shaking. Finally, HRP-conjugated goat anti-human A light chain antibody (Bethyl Laboratories, A80-116P) was added at a 1:10,000 dilution or HRP-conjugate IgG-Fc fragment cross-adsorbed antibody (Bethyl Laboratories, A80-304P, 1:30,000 dilution) was added in 5% non-fat dry milk in TBST, followed by a 1.5 h incubation of the plates at 37° C. The detection was carried out with 2,2′-azinobis(3-ethylbenzothiazoline-6-sulfonic acid) (ABTS, 0.18 mg/mL) and 0.03% hydrogen peroxide in 100 mM sodium citrate pH 4.0. Detection solution (100 μL) was added to each well and the plates were incubated at room temperature. The absorbance was recorded at 405 nm and the values for the LC standards were fitted to a 4-parameter logistic function. Light chain or IgG concentrations were averaged from at least 3 independent replicates under each treatment and then normalized to vehicle conditions.

| SMILES | ALLC interaction with BiP and GRP94 [1] | activation of the ATF6 geneset relative to Tg ([2]; 10 μM) [%] | BiP mRNA-Seq fold change (relative to Vh) ([2]; 6 h) [fold] | GRP94 mRNA-Seq fold change (relative to Vh) ([2]; 6 h) [fold] | SEL1L mRNA-Seq fold change (relative to Vh) ([2]; 6 h) [fold] | DNAJB1 mRNA-Seq fold change (relative to Vh) ([2]; 6 h) [fold] | HSPA1A mRNA-Seq fold change (relative to Vh) ([2]; 6 h) [fold] | HSPA8 mRNA-Seq fold change (relative to Vh) ([2]; 6 h) [fold] | ASNS mRNA-Seq fold change (relative to Vh) ([2]; 6 h) [fold] | DDIT3 (CHOP) mRNA-Seq fold change (relative to Vh) ([2]; 6 h) [fold] | TrIB3 mRNA-Seq fold change (relative to Vh) ([2]; 6 h) [fold] | ERdj3 mRNA-Seq fold change (relative to Vh) ([2]; 6 h) [fold] | HYOU1 mRNA-Seq fold change (relative to Vh) ([2]; 6 h) [fold] | p58IPK mRNA-Seq fold change (relative to Vh) ([2]; 6 h) [fold] | DNAJC10 mRNA-Seq fold change (relative to Vh) ([2]; 6 h) [fold] | HSPA13 mRNA-Seq fold change (relative to Vh) ([2]; 6 h) [fold] | SEC24D mRNA-Seq fold change (relative to Vh) ([2]; 6 h) [fold] | pEC50 [3] | other results |
| --- | --- | --- | --- | --- | --- | --- | --- | --- | --- | --- | --- | --- | --- | --- | --- | --- | --- | --- | --- |
| O=[N+]([O-])c1ccc(N/N=C/c2ccccc2O)cc1 [Compound 263] | unchanged | 50 | 5.7 | 2.5 | 2.7 | 1.4 | 2.5 | 1.3 | 1.5 | 2.0 | 1.3 | 2.4 | 2.7 | 2.9 | 1.3 | 1.7 | 2.1 | – | ALLC secretion (in words) ([3]; 10 μM): only minimally affects |
| Cc1ccc(O)c(N/C=C/C(=O)c2ccc(F)cc2)c1 [Compound 132] | increased | 75 | 9.1 | 3.5 | 4.9 | 3.0 | 9.3 | 1.5 | 2.7 | 10.6 | 5.8 | 2.9 | 3.6 | 3.7 | 1.4 | 2.6 | 3.1 | ~6.00 | slope of log2 mRNA fold change with compound versus with Tg ([2]; 10 μM, 6 h, ER proteostasis genes): 1 |
| Cc1ccc(O)c(NC(=O)CCc2ccccc2)c1 [Compound 147] | increased | 45 | 3.3 | 1.8 | 2.2 | 1.6 | 3.2 | 1.3 | 1.0 | 1.7 | 1.0 | 1.7 | 1.8 | 1.8 | 1.1 | 1.2 | 1.4 | ~6.00 | reduction of ALLC secretion ([3]; 10 μM pretreatment, ELISA): 60%; ALLC intracellular protein levels ([3]; ELISA): unchanged |
